Here are results for eight compounds from ChEMBL document CHEMBL5584291, “Rational design of small-sized peptidomimetic inhibitors disrupting protein-protein interaction” (RSC Med Chem, 2024).

For one assay, the system named is Splenocyte. Nature of the assay: Inhibition of mouse splenocyte proliferation at 100 nM relative to control. The class given is functional.
The target of assay [1] is Programmed cell death protein 1/Programmed cell death 1 ligand 1 (Homo sapiens, UniProt Q15116+Q9NZQ7). Nature of the assay: Inhibition of PD-1/PD-L1 (unknown origin) protein-protein interaction by HTRF assay. The format is protein-complex assay. For orientation: In TR-FRET formats the signal depends on donor and acceptor labels being close together.
Chain of Programmed cell death protein 1/Programmed cell death 1 ligand 1 (Q15116 whole entry): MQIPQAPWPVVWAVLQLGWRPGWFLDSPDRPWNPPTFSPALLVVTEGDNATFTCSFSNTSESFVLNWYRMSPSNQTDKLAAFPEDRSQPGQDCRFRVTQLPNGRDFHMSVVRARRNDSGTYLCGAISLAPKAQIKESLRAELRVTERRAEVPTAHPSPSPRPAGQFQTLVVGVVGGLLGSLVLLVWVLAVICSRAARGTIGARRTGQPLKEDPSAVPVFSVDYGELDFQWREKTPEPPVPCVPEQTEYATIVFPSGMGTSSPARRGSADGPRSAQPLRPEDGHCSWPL
Chain of Programmed cell death protein 1/Programmed cell death 1 ligand 1 (Q9NZQ7 whole entry): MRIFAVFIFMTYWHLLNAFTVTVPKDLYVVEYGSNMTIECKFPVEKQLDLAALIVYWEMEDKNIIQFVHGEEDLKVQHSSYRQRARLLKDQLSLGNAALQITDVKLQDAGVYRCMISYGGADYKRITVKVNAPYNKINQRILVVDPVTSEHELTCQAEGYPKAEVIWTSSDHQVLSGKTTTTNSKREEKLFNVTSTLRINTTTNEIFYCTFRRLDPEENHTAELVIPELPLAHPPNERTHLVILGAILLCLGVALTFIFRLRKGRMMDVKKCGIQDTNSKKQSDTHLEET
The subject of another assay is B16-F10. Nature of the assay: Antitumor activity against mouse B16-F10 cells xenografted in C57BL/6 mouse assessed as reduction in lung metastasis at 5 mg/kg, ip administered once daily for 14 days relative to control. The arrangement: scale not given: the % may be the effect or the level left. The following applies: time 14 day. The class given is functional.
Assay [2] in a line: Inhibition of human full length WDR5/RbBP5 (1 to 538 residues)/ASH2L (1 to 635 residues) expressed in Rosetta2 BL21 (DE3) pLysS incubated for 90 mins by SPA based histone methyltransferase assay.
Assay [3] deals with Histone-lysine N-methyltransferase, H3 lysine-79 specific (Homo sapiens, UniProt Q8TEK3). Kind of assay: Binding affinity to DOT1L (unknown origin) assessed as inhibition constant.
Chain of Histone-lysine N-methyltransferase, H3 lysine-79 specific (Q8TEK3 whole entry): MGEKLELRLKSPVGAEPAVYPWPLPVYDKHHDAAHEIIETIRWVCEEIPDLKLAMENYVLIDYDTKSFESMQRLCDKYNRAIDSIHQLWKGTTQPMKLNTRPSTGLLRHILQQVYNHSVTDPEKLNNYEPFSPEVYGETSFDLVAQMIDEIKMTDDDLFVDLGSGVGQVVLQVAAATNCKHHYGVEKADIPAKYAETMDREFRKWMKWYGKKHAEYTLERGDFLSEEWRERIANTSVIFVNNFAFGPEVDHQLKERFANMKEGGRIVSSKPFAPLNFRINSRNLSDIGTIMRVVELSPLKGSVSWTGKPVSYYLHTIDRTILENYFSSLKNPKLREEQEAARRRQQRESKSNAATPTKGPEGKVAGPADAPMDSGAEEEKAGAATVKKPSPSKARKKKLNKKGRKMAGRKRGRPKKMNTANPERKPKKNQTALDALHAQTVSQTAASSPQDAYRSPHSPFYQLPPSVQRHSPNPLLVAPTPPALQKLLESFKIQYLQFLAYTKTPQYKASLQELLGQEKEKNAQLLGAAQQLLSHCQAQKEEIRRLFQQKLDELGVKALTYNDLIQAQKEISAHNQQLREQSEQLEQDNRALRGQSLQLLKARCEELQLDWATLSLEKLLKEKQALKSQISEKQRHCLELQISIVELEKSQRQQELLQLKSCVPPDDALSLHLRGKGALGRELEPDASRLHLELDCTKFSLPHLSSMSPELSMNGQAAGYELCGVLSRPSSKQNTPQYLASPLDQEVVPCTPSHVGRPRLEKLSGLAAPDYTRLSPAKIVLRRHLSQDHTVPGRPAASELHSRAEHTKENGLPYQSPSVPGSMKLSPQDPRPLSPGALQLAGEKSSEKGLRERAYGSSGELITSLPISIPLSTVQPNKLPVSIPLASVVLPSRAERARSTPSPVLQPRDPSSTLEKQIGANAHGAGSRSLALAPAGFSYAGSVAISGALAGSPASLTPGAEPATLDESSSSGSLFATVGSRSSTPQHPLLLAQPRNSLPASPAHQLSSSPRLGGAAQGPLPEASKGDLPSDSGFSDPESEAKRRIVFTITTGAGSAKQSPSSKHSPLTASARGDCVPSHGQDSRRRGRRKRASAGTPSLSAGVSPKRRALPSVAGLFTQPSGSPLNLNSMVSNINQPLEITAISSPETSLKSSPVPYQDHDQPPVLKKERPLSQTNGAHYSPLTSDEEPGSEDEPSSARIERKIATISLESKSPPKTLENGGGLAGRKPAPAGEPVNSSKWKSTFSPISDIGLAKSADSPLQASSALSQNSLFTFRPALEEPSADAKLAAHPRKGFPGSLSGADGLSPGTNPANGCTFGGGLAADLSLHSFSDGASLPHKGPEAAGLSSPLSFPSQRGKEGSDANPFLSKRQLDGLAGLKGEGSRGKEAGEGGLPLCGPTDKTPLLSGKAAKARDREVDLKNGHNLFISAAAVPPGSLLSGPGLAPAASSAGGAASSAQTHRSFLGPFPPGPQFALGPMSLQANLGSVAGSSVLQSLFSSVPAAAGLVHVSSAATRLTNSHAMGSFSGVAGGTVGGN

Molecules are shown by their SMILES. *1 amine or outer side, *2 acyl side, *3 side chain or, on linkers, in order; H or OH if unused. Where a SMILES comes first, the peptide text is derived from it. Bridges are numbered along the chain shown (N, C = ends). [ ]: non-standard residue; d: D form. The star is where a group is joined. ξ: configuration not given here. X2 = c1ccc(-c2cn(CC3CCCCC3)c([C@@H]3CCCN3*)n2)cc1; dαMeDab = C[C@](CCN[*:3])(N[*:1])C(=O)[*:2]; X1 = NC(CO)C(=O)NC(Cc1ccccc1)C(=O)NCCCCN*; Ala(cPent) = N[C@@H](CC1CCCC1)C(=O)O; Arg(Me) = CNC(=N)NCCC[C@H](N)C(=O)O; d(αMeK) = C[C@@](N)(CCCCN)C(=O)O; Pentanoyl(4-Me) = CC(C)CCC(=O)*; dPhg = N[C@@H](C(=O)O)c1ccccc1; Isobutyryl = CC(C)C(=O)*; ξE = NC(CCC(=O)O)C(=O)O; Abu = CC[C@H](N)C(=O)O; Dap = NC[C@H](N)C(=O)O

One may read the inhibition as the change of the read-out against control, counted positive when it falls. For `NCCCC[C@H](NC(=O)N[C@@H](CC(N)=O)C(=O)NNC(=O)[C@@H](N)CO)C(=O)O`, testing at 0.1 µM with Splenocyte gave an inhibition of 87%.

In turn, `C[C@H](O)[C@H](NC(=O)N[C@@H](CC(N)=O)C(=O)NNC(=O)[C@@H](N)CO)C(=O)O` yielded an inhibition at 0.1 µM in the assay on Splenocyte of 68%.

Broadly, the IC50 is the concentration that inhibits the measured activity by half. In assay [1], `CC(O)[C@H](NC(=O)N[C@@H](CC(N)=O)C1NC([C@@H](N)CO)=NO1)C(=O)O` (stereo partly drawn) registered an IC50 of 17 nM.

With `C[C@@H](O)[C@@H]1NCC(=O)C(NC(=O)[C@@H](N)CO)CCC(=O)NCCCCC(C(=O)N[C@@H](CO)C(=O)N[C@@H](Cc2ccccc2)C(N)=O)NC(=O)[C@H](CO)NC1=O` (stereo partly drawn), the Activity in the assay with B16-F10 is 54%.

For the compound `C[C@@H](O)[C@H](NC(=O)[C@H](CC(N)=O)NC(=O)[C@@H](N)CO)C(=O)N[C@@H](CO)C(=O)NC(CCC(=O)NCCCCNC(=O)C(Cc1ccccc1)NC(=O)C(N)CO)C(N)=O` (stereo partly drawn) (H-SNTS[ξE](X1)-NH2), the Activity in the assay with B16-F10 turned out to be 4%.

With `CC[C@@H]1NC(=O)[C@H](CCCNC(=N)N)NC(=O)[C@](C)(NC(=O)C(C)C)CCCCNC(=O)[C@@H](c2ccccc2)NC1=O` (Isobutyryl-[d(αMeK)]R[Abu][dPhg]; lactam 1-C), the concentration for half-maximal inhibition (IC50) in assay [2] turned out to be 0.9 nM.

In turn, `CC[C@@H]1NC(=O)[C@H](CCCNC(=N)NC)NC(=O)[C@](C)(NC(=O)C(C)C)CCNC(=O)[C@@H](c2ccccc2)NC1=O` (Isobutyryl-[dαMeDab][Arg(Me)][Abu][dPhg]; lactam 1-C) registered an IC50 in assay [2] of 0.9 nM.

In general, Ki refers to a measure of affinity in units of concentration, obtained from inhibition or displacement. `CC(C)CCC(=O)N1CCC[C@H]1C(=O)N[C@H](C(=O)N[C@@H](CN)C(=O)N[C@@H](CC1CCCC1)C(=O)N1CCC[C@H]1c1nc(-c2ccccc2)cn1CC1CCCCC1)C(C)C` ({Pentanoyl(4-Me)}-PV[Dap][Ala(cPent)]-X2): the inhibition constant Ki in assay [3] turned out to be 23 nM.
